Values of other authors in patent US20160045465A1, “THERAPEUTIC FORMULATIONS FOR THE TREATMENT OF COLD AND FLU-LIKE SYMPTOMS” (Kingsway Pharmaceuticals Inc., priority 2007, published 2016).
Structures can show the parent of a compound that is named as a salt. Where two headings read alike, the source gives them in different places.

Experiments:
[1] = not given; remark: listed apart in the source
[2] = in vivo
[3] = children, ibuprofen suspension, oral
[4] = oral, 30 mg as tablets or oral solution

For CC(=O)Nc1ccc(O)cc1 [acetaminophen, N-(4-hydroxyphenyl)ethanamide], the “fraction in the body undergoing conjugation (glucuronic acid, sulphuric acid)” value (in vivo) is listed as 80-85%, the plasma half-life (in vivo) is listed as 1.2 to 3.0 h and the “time to peak plasma concentrations” value (oral administration of immediate release acetaminophen preparations) is listed as 0.167 to 1 h.
For CC(C)Cc1ccc(C(C)C(=O)O)cc1 (centres unmarked) [ibuprofen, 2-[4-(2-methylpropyl)phenyl]propanoic acid], the “onset of antipyretic effect” value (fever; [3]) is given as ≤ 1 h, the “time of peak antipyretic effect” value (fever; [3]) is given as 2 to 4 h and the “duration of antipyretic effect” value (fever; single ibuprofen suspension doses of 10-mg/kg) is given as “up to 8 hours”. For the same compound, the “time to reach maximal plasma concentration” value (conventional tablets) was “approximately 120 minutes”, the “time until excretion is essentially complete” value (following oral administration) was ≤ 24 h and the “fraction of an oral dose absorbed from the GI tract” value (in vivo, po) was “Approximately 80%”. For the same compound, the “reduction of peak plasma concentrations when administered with food” value (with food) was 30-50% and the “change of time to achieve peak plasma concentrations when administered with food” value (with food, given as 'reduced by') was 30 to 60 min.
For CNC[C@H](O)c1cccc(O)c1 [phenylephrine hydrochloride], the pKa [1] is listed as 8.86.
For CNC[C@H](O)c1cccc(O)c1 [phenylephrine], the “efficacy compared with pseudoephedrine” value [2] is given as “less efficacious than pseudoephedrine”, the elimination half-life (in vivo) is given as 2 to 3 h and the “bioavailability following oral administration” value (oral) is given as “approximately 38%”. The “time of peak serum concentrations” value (oral) was 0.75 to 2.0 h, the “duration of nasal decongestion” value (nasal congestion; oral phenylephrine) was 2 to 4 h and the “onset of nasal decongestion” value (nasal congestion; oral phenylephrine) was 15 to 20 min.
For CN[C@@H](C)[C@@H](O)c1ccccc1 [pseudoephedrine hydrochloride], the “duration of nasal decongestion” value (nasal congestion; 120 mg in extended-release capsules) is given as “up to 12 hours”, the “duration of nasal decongestion” value (nasal congestion; oral administration of 60 mg) is given as 8 h and the “duration of nasal decongestion” value (nasal congestion; [4]) is given as 4 to 6 h. For the same compound, the “onset of nasal decongestion” value (nasal congestion; [4]) was ≤ 30 min.
For CN[C@@H](C)[C@@H](O)c1ccccc1 [pseudoephedrine], the “time to peak plasma concentrations” value (60-mg dose as an oral solution) is given as 1.39 to 2.0 h, the “time to peak plasma concentrations” value (120-mg dose as an oral solution) is given as 1.84 to 1.97 h and the “time to peak plasma concentrations” value (extended-release products) is given as 3.8 to 6.1 h. For the same compound, the “fraction of a dose excreted unchanged in urine” value (in vivo) was 55-96%, the elimination half-life (urinary pH 5) was 3 to 6 h and the elimination half-life (urinary pH 5.8) was 5 to 8 h. For the same compound, the elimination half-life (urinary pH 8) was 9 to 16 h.
